Measured values taken from patent publication US8642625B2, “Therapeutic agent or preventive agent for urine collection disorder” (Toray Industries, Inc., priority 2010, dated 2014).
Like-named read-outs stand apart in the source and are kept apart here.

Columns and labels:
[1] = system: mouse acetic acid writhing model; assay: Mouse acetic acid writhing model (effects on pain); type: in vivo; settings: oral, 45 minutes before 0.6% acetic acid i.p., read-out: ED50 (dose by which the writhing response was inhibited by 50%)
Protocol: The mouse acetic acid writhing model, by which pain can be evaluated, was used to evaluate the analgesic effect of Compound (I).
Male ddY mice of 5 to 6 weeks old were fasted for 16 hours while allowing them to freely drink water, and a test compound solution or its vehicle was orally administered (10 mL/kg) to them. DMSO:Tween80:distilled water (1:1:8) or 27% hydroxypropyl-β-cyclodextrin (hereinafter “HP-β-CD”) was used as a vehicle of test compound solutions. Forty five minutes after the administration, 0.6% acetic acid solution (10 mL/kg) was intraperitoneally administered thereto to induce writhing response (i.e., the behavior to stretch the body and/or bend the body backward). The number of the writhing response observed for 10 minutes from 10 minutes after the administration of acetic acid solution was counted, which was taken as an indicator of pain.
Taking the mean number of writhing response of the vehicle group as 100%, the dose of a test compound by which the response was inhibited by 50% was expressed as “ED50”.

[2] = molecular target: T1, human muscarinic M1 receptor (Homo sapiens, UniProt P11229); assay: Binding ability to human muscarinic receptors ([3H]N-Methylscopolamine); settings: 0.8 nmol/L [3H]N-Methylscopolamine, CHO cells
T1 construct: expressed in transfected cells; host or cells: CHO cells
T1 sequence (P11229 1-460): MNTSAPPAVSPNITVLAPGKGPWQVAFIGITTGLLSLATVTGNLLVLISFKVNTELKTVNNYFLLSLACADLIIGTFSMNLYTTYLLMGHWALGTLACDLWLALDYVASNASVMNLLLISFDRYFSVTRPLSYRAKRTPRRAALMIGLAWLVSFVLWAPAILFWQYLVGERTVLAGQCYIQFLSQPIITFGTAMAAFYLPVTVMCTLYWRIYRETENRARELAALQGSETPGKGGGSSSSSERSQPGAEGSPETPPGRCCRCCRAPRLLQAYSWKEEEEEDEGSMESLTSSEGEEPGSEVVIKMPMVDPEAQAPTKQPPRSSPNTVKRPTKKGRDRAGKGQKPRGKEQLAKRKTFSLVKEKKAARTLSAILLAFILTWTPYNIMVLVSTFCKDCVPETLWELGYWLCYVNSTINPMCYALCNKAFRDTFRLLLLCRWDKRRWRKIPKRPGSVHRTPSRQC
Protocol: (§1) CHO cells expressing human muscarinic M1, 2, 3, 4 and 5 receptors, respectively, were used (Buckley N J et al., Mol. Pharmacol., 1989, vol. 35, no. 4, p. 469-476). Receptor binding experiments were carried out according to a conventional method (Luthin G R et al., Pharmacol Exp Ther., 1984, vol. 228, no. 3, p. 648-655). As a radiolabeled ligand, 0.8 nmol/L [^3H]N-Methylscopolamine was used; and as a nonspecific ligand, 1 μmol/L Atoropine was used.

[3] = molecular target: T2, human muscarinic M4 receptor (Homo sapiens, UniProt P08173); assay: as above; settings: 0.8 nmol/L [3H]N-Methylscopolamine, CHO cells
T2 construct: expressed in transfected cells; host or cells: CHO cells
T2 sequence (P08173 1-479): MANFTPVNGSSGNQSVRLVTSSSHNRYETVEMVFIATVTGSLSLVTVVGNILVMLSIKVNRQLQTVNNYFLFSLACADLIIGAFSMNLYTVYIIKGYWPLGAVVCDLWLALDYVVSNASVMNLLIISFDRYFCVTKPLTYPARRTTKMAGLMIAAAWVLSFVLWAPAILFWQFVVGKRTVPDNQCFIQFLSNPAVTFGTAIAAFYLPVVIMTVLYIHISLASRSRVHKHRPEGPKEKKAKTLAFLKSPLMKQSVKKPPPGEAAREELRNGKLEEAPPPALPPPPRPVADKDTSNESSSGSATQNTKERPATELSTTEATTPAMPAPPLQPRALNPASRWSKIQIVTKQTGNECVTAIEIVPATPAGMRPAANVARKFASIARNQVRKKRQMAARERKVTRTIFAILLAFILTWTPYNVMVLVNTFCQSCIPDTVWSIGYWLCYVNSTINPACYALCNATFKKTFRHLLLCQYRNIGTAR
Protocol: as §1

[4] = molecular target: T3, human muscarinic M2 receptor (Homo sapiens, UniProt P08172); assay: as above; settings: 0.8 nmol/L [3H]N-Methylscopolamine, CHO cells
T3 construct: expressed in transfected cells; host or cells: CHO cells
T3 sequence (P08172 1-466): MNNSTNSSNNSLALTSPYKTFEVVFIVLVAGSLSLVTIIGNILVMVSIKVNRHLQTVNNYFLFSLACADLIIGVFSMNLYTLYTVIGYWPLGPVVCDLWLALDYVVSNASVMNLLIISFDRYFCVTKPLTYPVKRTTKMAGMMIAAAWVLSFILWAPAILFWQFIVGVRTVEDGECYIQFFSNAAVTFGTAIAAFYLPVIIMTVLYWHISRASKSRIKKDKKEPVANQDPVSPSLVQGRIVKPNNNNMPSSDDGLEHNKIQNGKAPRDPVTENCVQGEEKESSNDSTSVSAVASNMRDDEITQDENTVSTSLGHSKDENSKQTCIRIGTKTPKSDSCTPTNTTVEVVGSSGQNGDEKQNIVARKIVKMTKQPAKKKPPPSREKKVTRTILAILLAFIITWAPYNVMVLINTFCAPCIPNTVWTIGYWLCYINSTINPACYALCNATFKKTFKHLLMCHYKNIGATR
Protocol: as §1

[5] = molecular target: T4, human muscarinic M3 receptor (Homo sapiens, UniProt P20309); assay: as above; settings: 0.8 nmol/L [3H]N-Methylscopolamine, CHO cells
T4 construct: expressed in transfected cells; host or cells: CHO cells
Protocol: as §1

[6] = molecular target: T5, human muscarinic M5 receptor (Homo sapiens, UniProt P08912); assay: as above; settings: 0.8 nmol/L [3H]N-Methylscopolamine, CHO cells
T5 construct: expressed in transfected cells; host or cells: CHO cells
T5 sequence (P08912 1-532): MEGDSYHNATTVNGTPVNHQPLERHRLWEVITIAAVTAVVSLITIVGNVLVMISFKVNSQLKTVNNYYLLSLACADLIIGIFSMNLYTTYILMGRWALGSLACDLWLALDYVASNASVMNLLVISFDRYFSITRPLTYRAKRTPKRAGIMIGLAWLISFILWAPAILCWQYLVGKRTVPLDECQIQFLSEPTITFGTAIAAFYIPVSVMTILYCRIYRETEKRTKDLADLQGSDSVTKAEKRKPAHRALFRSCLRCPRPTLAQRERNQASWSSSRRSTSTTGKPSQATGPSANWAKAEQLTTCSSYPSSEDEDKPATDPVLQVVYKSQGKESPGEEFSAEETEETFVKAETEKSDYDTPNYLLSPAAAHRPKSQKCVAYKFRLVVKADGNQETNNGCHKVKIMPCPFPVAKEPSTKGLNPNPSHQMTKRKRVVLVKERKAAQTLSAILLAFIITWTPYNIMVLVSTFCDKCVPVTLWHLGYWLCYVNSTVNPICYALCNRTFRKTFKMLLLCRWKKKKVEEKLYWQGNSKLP
Protocol: as §1

[7] = system: cyclophosphamide-induced pollakiuria model rats; assay: Effects in cyclophosphamide-induced pollakiuria model rats (continuous cystometrograms); type: in vivo, rat; settings: 5 mg/kg intravenous; 20 minutes after vs 20 minutes before administration; compared to the vehicle group, p<0.05
Protocol: In the experiments, 6 to 7 female SD rats of 7 to 11 weeks old were used for one experimental group. The pollakiuria model (Lecci A et al., British Journal of Pharmacology, 2000, vol. 130, p. 331) was prepared by intraperitoneally administering cyclophosphamide (SIGMA) to rats (150 mg/kg). This model has been considered to be useful as a model of urine storage disorders associated with inflammatory disease, in particular, a model of pollakiuria of interstitial cystitis. Four to five hours after administration of cyclophosphamide, pollakiuria model rats were anesthetized by intraperitoneal administration of urethane (1 g/kg). Thereafter, a small incision was formed in the hypogastrium, and both ureters were ligated, followed by forming small incision in the ureters at the side of the kidney. Next, the bladder apex of each pollakiuria model rat was incised, and a polyethylene tube filled with physiological saline was inserted and indwelled. […]
The number of voiding episodes was counted based on CMGs. Taking the number of voiding episodes counted for a time period of 20 minutes before the administration of the test compound as 100%, the number of voiding episodes counted for a time period of 20 minutes after the administration of the test compound was expressed in %, which was used as the ratio of change in the number of voiding episodes. […]

[8] = system: muscarinic receptor subtypes; assay: Binding ability to human muscarinic receptors, overall statement; settings: any of M1 to M5; 10 μmol/L
Protocol: as §1

T4 sequence (P20309 whole entry): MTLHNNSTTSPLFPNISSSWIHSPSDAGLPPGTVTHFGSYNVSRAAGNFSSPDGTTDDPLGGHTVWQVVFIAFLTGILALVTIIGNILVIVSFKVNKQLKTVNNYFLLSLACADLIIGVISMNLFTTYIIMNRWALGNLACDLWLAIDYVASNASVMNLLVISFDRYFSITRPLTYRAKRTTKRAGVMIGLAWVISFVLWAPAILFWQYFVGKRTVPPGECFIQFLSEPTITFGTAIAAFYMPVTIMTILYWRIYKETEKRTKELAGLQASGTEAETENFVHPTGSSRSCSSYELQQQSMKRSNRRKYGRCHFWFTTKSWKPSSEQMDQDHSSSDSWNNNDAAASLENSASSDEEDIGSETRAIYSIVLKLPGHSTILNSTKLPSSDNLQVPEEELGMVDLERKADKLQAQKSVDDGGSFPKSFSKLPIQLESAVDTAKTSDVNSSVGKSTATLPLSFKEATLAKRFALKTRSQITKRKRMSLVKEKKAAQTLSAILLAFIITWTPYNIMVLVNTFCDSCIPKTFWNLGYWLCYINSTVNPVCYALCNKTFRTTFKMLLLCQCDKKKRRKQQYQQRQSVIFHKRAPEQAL

SMILES	ED50 ([1]; Vehicle B (HP-β-CD))	other results
COc1ccc(-c2nc(C3(O)CCC(O)(C(F)(F)F)CC3)sc2-c2ccc(C)cc2)cc1 (stereo not drawn) [Compound 46, 1-(4-(4-methoxyphenyl)-5-(p-tolyl)thiazol-2-yl)-4-(trifluoromethyl)cyclohexan-cis-1,4-diol]	9.65 mg/kg	–
COc1ccc(-n2nc(C3(O)CCC(O)CC3)cc2-c2ccc(C)cc2)cc1 (stereo not drawn) [Compound 3, 1-(1-(4-methoxyphenyl)-5-(p-tolyl)-1H-pyrazol-3-yl)cyclohexan-cis-1,4-diol]	–	Inhibition Ratio by 10 μmol/L Compound 3 (%) [2]: −10%; Inhibition Ratio by 10 μmol/L Compound 3 (%) [3]: −1%; Inhibition Ratio by 10 μmol/L Compound 3 (%) [4]: −6%; Inhibition Ratio by 10 μmol/L Compound 3 (%) [5]: −4%; Inhibition Ratio by 10 μmol/L Compound 3 (%) [6]: −4%; increase in the number of voiding episodes (ratio of change in the number of voiding episodes) [7]: significantly improved; binding to muscarinic receptor subtypes [8]: did not bind
COc1ccc(-n2nc(C3(O)CCC(OC(C)=O)CC3)cc2-c2ccc(C)cc2)cc1 (stereo not shown) [Compound 12, c-4-hydroxy-4-(1-(4-methoxyphenyl)-5-(p-tolyl)-1H-pyrazol-3-yl)-cyclohexan-r-1-yl acetate]	1.77 mg/kg	–
COc1ccc(-n2nc(C3(O)CCC(O)CC3)cc2-c2ccc(C)cc2)cc1F (stereo not shown) [Compound 54]	3.73 mg/kg	–
CCOC(=O)OC1CCC(O)(c2cc(-c3ccc(C)cc3)n(-c3ccc(OC)cc3)n2)CC1 (stereo not shown) [Compound 61]	4.79 mg/kg	–
COc1ccc(-n2nc(C3(O)CCC(O)CC3)cc2-c2ccc(C)nc2)cc1 (stereo not drawn) [Compound 15, 1-(1-(4-methoxyphenyl)-5-(6-methylpyridin-3-yl)-1H-pyrazol-3-yl)cyclohexan-cis-1,4-diol]	6.07 mg/kg	–
COc1ccc(-n2nc(C3(O)CCC(O)CC3)cc2-c2ccc(C#N)cc2)cc1 (stereo not shown) [Compound 51]	4.69 mg/kg	–
Cc1ccc(-c2cc(C3(O)CCC(O)CC3)nn2-c2ccc(C#N)cc2)cc1 (stereo not shown) [Compound 49]	2.69 mg/kg	–
COc1ccc(-n2nc(C3(O)CCC(=O)CC3)cc2-c2ccc(C)cc2)cc1 [Compound 4, 4-hydroxy-4-(1-(4-methoxyphenyl)-5-(p-tolyl)-1H-pyrazol-3-yl)cyclohexan-1-one]	–	ED50 ([1]; Vehicle A (DMSO:Tween80:distilled water=1:1:8)): 1.95 mg/kg
COc1ccc(-n2nc(C3(O)CCC(OC(=O)OC4CCCCC4)CC3)cc2-c2ccc(C)cc2)cc1 (stereo not drawn) [Compound 60, cyclohexyl 4-hydroxy-4-(1-(4-methoxyphenyl)-5-(p-tolyl)-1H-pyrazol-3-yl)-cis-cyclohexyl carbonate]	6.18 mg/kg	–
